The results in this text go back to patent EP1222180B1, “ENANTIOMERIC COMPOUNDS FOR TREATMENT OF CARDIAC ARRHYTHMIAS AND METHODS OF USE” (ARYx Therapeutics, priority 1999, dated 2001).

One data set concerns anesthetized rats. Put plainly: Anti-arrhythmic activity in anesthetized rats (benzene/adrenaline challenge, EKG recording). The conditions noted are these: for protection against tachyarrhythmia (heart rate increase after adrenaline): administered from time 0 to time 120 minutes, Figure 3; for inhibition of the formation of ventricular premature beats (VPB): period of drug administration (time 0 to 120 min); for Heart rate (beats/minute) / Inhibition of VPB / Inhibition of tachycardia / Number of VPB / PR interval / QRS interval / QT interval: isolated enantiomer compared to the racemate, 4 mg/kg i.v. then 12 mg/kg/h for 2 hours; for anti-VPB activity at the end of the washout period: time 180 min. The format is in vivo, Male Sprague-Dawley rats. On the procedure: Male Sprague-Dawley rats with body weights of 410 ± 30 g (Harlan Sprague Dawley Inc., Indianapolis, IN), were anesthetized with sodium pentobarbital (50 mg/kg i.p. - Butler Co., Columbus, OH). The skin from the neck area was removed and the jugular veins on both sides were cleared of connective tissue. Both jugular veins and the left carotid artery were isolated, and the latter tied up cranially with a surgical silk (ETHICON 4-0, Ethicon Inc., Australia). A plastic catheter ([…] 19ga, Vecton Dickinson, Sandy, UT), filled with a solution containing 10% sodium heparin (Elkins-Sinn Inc., Cherry Hill, NJ) in normal saline (100 U/ml sodium heparin), was introduced into the artery and fixed with surgical silk.
The catheter was connected to a pressure transducer (OHMEDA P23-XL, Ohmeda Medical Devices Division Inc., Madison, WI), filled with the same heparinized 0.9% NaCl solution, to register beat-to-beat arterial pressure. Needle electrodes were inserted s.c., and together with the pressure transducer, were joined to a GOULD TA 2000 recorder. Leads II, aVF and intraarterial blood pressure were monitored simultaneously throughout the experiments and recorded at certain intervals at 50 and 200 mm/sec paper speed.
The surgery was completed with an incision on the trachea where a short plastic tubing was placed and the animal was connected to a rodent-model ventilator (HARVARD Model 683, Harvard Apparatus, Inc., Holliston, MA). The animals were ventilated in a controlled way, depending on their spontaneous breathing frequency (55-75/min).
Drug administrations were carried out through i.v. catheters (TERUMO 24 GA*3/4", Terumo Medical Corp., Elkton, MD) inserted into both jugular veins. The left side was used for drug infusions by means of a syringe pump (SAGE INSTRUMENTS, Model 341B, Orion Res. Inc., Boston, MA), and the right side was used for adrenaline injections. The experiments were started after at least 15 minutes of stabilization. Benzene/adrenaline challenges were performed as follows: the respirator inlet was connected to a 50-ml bubbler half-full with benzene (Fisher Scientific, Fair Lawn, NJ) so that the inspired air was saturated with benzene vapor. The animal was ventilated with benzene vapor for two minutes. The tidal volume was typically 1 ml/100g of animal. During the last 30 seconds of benzene ventilation, 10 µg/kg adrenaline solution (in 0.9% NaCl) was injected into the right jugular vein. […] These arrhythmias could be elicited repeatedly. After three control VTs (at -30, -20 and -10 minutes), the test compounds were injected slowly during 30 seconds at a dose of 4 mg/kg i.v., immediately followed by a slow infusion of 12 mg/kg/h for 2 hours. The flow rate during the infusion period was 1 ml/h.
There were 5 rats per test compound and each animal served as its own control. The ability of the different drugs to suppress arrhythmias was tested against repeated benzene/adrenaline challenges at 5, 15, 30, 45, 60, 90, 120 (end of drug infusion), 135, 150, 165 and 180 minutes after the i.v. bolus injection. The amplitudes of the systolic arterial pressure and diastolic arterial pressure […] with the help of a pressure-amplitude calibration curve. Heart rate, number of ventricular complexes during the occurrence of VTs and VPBs, and certain ECG parameters (PR, QRS, QT durations and RR cycle lengths in msec) were also recorded and measured manually. At each time-point, 3-5 cycles were measured and the average values were entered into EXCEL Windows 97. The average and standard deviation for the five experimental animals per compound were calculated.

The format of data set [1] is in vitro ADME. The following applies: human; for hydrolysis half-life: plasma. The method, then:
Venous blood (60 ml) was collected in heparinized 15-ml Vacutainer® tubes from the forearm of five human volunteers. Each tube contained 1,000 units of heparin sodium salt. The blood was immediately centrifuged at 2,000 g for 10 minutes and the plasma was collected. Immediately after collection, the plasma was divided into 2-ml aliquots in borosilicate glass tubes (5-ml capacity) capped with a plastic stopper. The tubes were then equilibrated in a 37°C-water bath for at least 15 minutes before the test samples were added. Stock solutions were prepared by dissolving 25 µmoles (about 18 mg) of each of the test compounds in 10 ml of deionized water. To each of the glass tubes containing 2 ml of fresh plasma, equilibrated at 37°C, was added 40 µl of the stock solutions (one test compound per tube). The plasma/stock solutions were then mixed. Samples (250 µl) were collected at time 0 (immediately after mixing test compounds in plasma) and then at 30, 60, 90, 120, 180, 240, and 300 minutes. The test tubes were capped, to avoid concentration due to evaporation, and left in the 37°C bath during the entire experiment. […] The tubes were then capped and vortexed, then kept at -20°C until analysis. […] The supernatant was collected for injection in the HPLC system. […] The detection wavelength was set at 242 nm, and the injected volume was 100 µL. The HPLC peaks were recorded, and the integrated values were plotted against time using the SIGMAPLOT software version 4.0 for WINDOWS. The resulting curves were fitted to a first-order exponential decay equation from which hydrolysis half-lives were calculated.

Where [2] appears, read: benzene vapors and adrenaline challenge, Figure 2.

On to `CC[C@H](C)OC(=O)Cc1oc2ccccc2c1C(=O)c1cc(I)c(OCCN(CC)CC)c(I)c1` [ATI-2042], for which the “protection against tachyarrhythmia (heart rate increase after adrenaline)” value in the data set on anesthetized rats is listed as “very good protection against this tachyarrhythmia”.
As for `CC[C@H](C)OC(=O)Cc1oc2ccccc2c1C(=O)c1cc(I)c(OCCN(CC)CC)c(I)c1` [R,S-2042], the “protection against tachyarrhythmia (heart rate increase after adrenaline)” value in the data set with anesthetized rats is “the least potent and shortest acting”. The “inhibition of the formation of ventricular premature beats (VPB)” value with anesthetized rats (setting [2]) is listed as “even less active than either the R- or the S-isomer”.
In the case of `CC[C@@H](C)OC(=O)Cc1oc2ccccc2c1C(=O)c1cc(I)c(OCCN(CC)CC)c(I)c1` [R-2042, (R)-sec-Butyl 2-[3-(3,5-diiodo-4-(2-diethylaminoethyloxy)benzoyl)]benzofurane-acetate], in the data set on anesthetized rats (setting [2]), the “time at which anti-VPB activity is lost” value is listed as approximately 100 min and the “anti-VPB activity at the end of the washout period” value was “completely inactive”. In the data set with anesthetized rats, the “Heart rate (beats/minute)” value is “lower”, the “Inhibition of VPB” value is recorded as “longer”, the Inhibition of tachycardia result is recorded as “longer” and the “Number of VPB” value is “lower”. Moreover, in the data set on anesthetized rats, the PR interval entry is reported as “shorter”, the QRS interval result is reported as “no change” and the QT interval entry was “no change”. In data set [1], this compound came in with a Plasma half-life of 5.0 h and a hydrolysis half-life of 5 h.
`CC[C@H](C)OC(=O)Cc1oc2ccccc2c1C(=O)c1cc(I)c(OCCN(CC)CC)c(I)c1` [S-2042, (S)-sec-Butyl 2-[3-(3,5-diiodo-4-(2-diethylaminoethyloxy)benzoyl)]benzofurane-acetate]: the “effects on the QT segment of the EKG recording (Class-III properties)” value with anesthetized rats (Figure 4) is “the most potent and the longest acting”. Moreover, the “effects on the PR segment of the EKG recording (Class-IV activity)” value in the data set on anesthetized rats (Figure 6) was “much more potent than R-2042 and the racemate R,S-2042”. In addition, in the data set with anesthetized rats, the “protection against tachyarrhythmia (heart rate increase after adrenaline)” value was “more potent and longer acting then R-2042”; the “Heart rate (beats/minute)” value is given as “lower”; the “Inhibition of VPB” value is “longer”; the Inhibition of tachycardia result was “longer”. In addition, in the data set on anesthetized rats, the “Number of VPB” value is “lower”, the PR interval result is “longer”, the QRS interval entry is “longer” and the QT interval entry was “longer”. Also, in the data set on anesthetized rats (setting [2]), the “inhibition of the formation of ventricular premature beats (VPB)” value is given as “totally inhibited the formation of ventricular premature beats for the whole period of drug administration” and the “anti-VPB activity at the end of the washout period” value is given as “still retained part of its activity”. In data set [1], this compound showed a Plasma half-life of 7.3 h and a hydrolysis half-life of 7.3 h.
